Assay results published in patent US20080125432A1 (Devgen NV, priority 2004, published 2008).

Target: T1, INa (SCN5a) (Homo sapiens, UniProt Q14524)
T1 construct: endogenous in cells; host or cells: freshly isolated human atrial myocytes (bypass-surgery patients)
Assay: Whole-cell patch clamp in human atrial myocytes: INa
Format: cell-based
Details: n = 3 cells
Description: The blocking profile of the compounds of the invention is determined on the following channels of the human atrial myocytes: INa, Ito, Isus and IK1 channel currents.
Human atrial myocytes: Myocytes were prepared from specimens with grossly normal anatomical aspect, excised from hearts of patients with normal P-wave electrocardiogram, undergoing bypass surgery. Human atrial sample were obtained following approval by the ethical committee. Atrial tissue samples were quickly immersed in a cardioplegic solution (in mM: 50 KH2PO4, 8 MgSO4, 10 NaHCO3, 5 adenosine, 25 taurine, 140 glucose, and 100 mannitol, titrated to a pH of 7.4 and bubbled with 100% O2 at 0-4° C.) and rapidly delivered to the laboratory. The tissue was then minced onto 0.5-1 mm^2 chunks within 30 min after the excision procedure and transferred to a 50 ml conical tube containing wash solution deprived of Ca^2+ (in mM: 137 NaCl, KH2PO4, 1 MgSO4, 10 taurine, 10 glucose, 5 HEPES, and 100 μmol/L (µM) EGTA; pH=7.4, room temperature 22-24° C.). […]
Experiments were performed at room temperature (20-25° C.) for INa and at 32-34° C. for Ito, Isus, IK1. Currents were measured using the whole-cell variant of the patch clamp method. […]
Raw data and mean ±SEM are given. […] This is measured as current reduction after a steady-state effect has been reached in the presence of drug relative to current amplitude before drug was introduced (control). […]

T1 sequence (Q14524 whole entry): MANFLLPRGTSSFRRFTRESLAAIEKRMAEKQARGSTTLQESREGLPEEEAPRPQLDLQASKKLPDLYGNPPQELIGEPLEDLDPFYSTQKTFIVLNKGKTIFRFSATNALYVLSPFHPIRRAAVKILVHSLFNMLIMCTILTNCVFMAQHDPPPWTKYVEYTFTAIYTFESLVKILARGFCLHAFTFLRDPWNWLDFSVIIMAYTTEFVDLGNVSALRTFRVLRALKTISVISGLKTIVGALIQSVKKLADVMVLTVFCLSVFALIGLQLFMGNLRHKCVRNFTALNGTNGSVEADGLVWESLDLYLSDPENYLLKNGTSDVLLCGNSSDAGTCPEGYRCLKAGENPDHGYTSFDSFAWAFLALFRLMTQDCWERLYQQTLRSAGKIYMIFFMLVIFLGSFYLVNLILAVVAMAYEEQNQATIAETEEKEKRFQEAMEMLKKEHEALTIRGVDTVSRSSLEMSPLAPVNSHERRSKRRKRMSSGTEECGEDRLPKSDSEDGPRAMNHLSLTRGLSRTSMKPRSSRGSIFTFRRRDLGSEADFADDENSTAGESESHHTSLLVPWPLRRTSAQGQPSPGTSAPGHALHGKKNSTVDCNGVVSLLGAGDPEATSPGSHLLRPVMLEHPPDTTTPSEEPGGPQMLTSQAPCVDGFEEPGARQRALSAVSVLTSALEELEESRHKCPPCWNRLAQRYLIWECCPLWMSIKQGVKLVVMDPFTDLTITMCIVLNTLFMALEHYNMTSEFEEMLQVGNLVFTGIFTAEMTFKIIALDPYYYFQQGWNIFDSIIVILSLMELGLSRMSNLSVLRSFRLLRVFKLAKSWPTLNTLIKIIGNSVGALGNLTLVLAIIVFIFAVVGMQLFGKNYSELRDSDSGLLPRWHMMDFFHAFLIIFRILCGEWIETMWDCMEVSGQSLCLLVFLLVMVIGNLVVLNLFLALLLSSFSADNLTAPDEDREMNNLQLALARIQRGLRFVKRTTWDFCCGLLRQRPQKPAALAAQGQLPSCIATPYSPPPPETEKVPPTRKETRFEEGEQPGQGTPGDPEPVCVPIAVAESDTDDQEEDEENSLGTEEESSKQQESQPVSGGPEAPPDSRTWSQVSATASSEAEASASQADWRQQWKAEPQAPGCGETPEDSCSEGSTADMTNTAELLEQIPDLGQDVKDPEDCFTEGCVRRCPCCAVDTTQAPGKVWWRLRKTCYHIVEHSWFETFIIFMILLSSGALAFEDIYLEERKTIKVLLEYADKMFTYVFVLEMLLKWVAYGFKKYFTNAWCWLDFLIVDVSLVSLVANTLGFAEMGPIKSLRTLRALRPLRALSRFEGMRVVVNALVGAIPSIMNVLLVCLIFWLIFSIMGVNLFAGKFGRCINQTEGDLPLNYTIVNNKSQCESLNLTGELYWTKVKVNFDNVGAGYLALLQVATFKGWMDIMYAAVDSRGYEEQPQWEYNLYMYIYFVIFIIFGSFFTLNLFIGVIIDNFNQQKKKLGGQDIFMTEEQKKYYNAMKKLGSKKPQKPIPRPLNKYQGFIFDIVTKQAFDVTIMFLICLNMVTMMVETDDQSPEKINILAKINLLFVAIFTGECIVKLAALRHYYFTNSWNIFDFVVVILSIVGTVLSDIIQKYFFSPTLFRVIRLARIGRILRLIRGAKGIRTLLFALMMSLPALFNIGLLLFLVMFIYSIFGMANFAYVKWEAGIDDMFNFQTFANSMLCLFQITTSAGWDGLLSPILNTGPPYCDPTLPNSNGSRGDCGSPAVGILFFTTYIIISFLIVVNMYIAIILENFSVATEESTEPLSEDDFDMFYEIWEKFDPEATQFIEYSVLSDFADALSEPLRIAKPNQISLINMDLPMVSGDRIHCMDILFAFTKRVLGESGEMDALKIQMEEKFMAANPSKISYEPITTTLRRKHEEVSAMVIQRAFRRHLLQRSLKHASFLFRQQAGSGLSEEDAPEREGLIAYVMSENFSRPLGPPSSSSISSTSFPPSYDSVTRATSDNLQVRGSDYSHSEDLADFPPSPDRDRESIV

COc1ccccc1Nc1nc(C)c(C(=O)N[C@H]2CCC[C@@H]2OCc2ccccc2)s1 [Compound 68, 2-(2-methoxy-phenylamino)-4-methyl-thiazole-5-carboxylic acid (1S,2S)-2-(benzyloxycyclopent-1-yl) amide]
Block at 10 μM in %: INa (SCN5a): 0 ± 0.5%
